biological target: recombinant GST-tagged MDM2 / p53-peptide interaction (Homo sapiens, UniProt Q00987); test: HTRF assay of inhibition of the p53-MDM2 interaction; assay type: binding; settings: 0.02% BSA
Experimental: The ability of the compounds to inhibit the interaction between p53 and MDM2 proteins was measured by an HTRF (homogeneous time-resolved fluorescence) assay in which recombinant GST-tagged MDM2 binds to a peptide that resembles the MDM2-interacting region of p53 (Lane et al.). Binding of GST-MDM2 protein and p53-peptide (biotinylated on its N-terminal end) is registered by the FRET (fluorescence resonance energy transfer) between Europium (Eu)-labeled anti-GST antibody and streptavidin-conjugated Allophycocyanin (APC).
[…] Add 10 uL diluted compounds (1:5 dilution in reaction buffer) to each well, mix by shaking. Add 20 uL biotinylated p53 peptide (180 nM working solution) in reaction buffer to each well and mix on shaker. Incubate at 37° C. for h. Add 20 uL streptavidin-APC and Eu-anti-GST antibody mixture (6 nM Eu-anti-GST and 60 nM streptavidin-APC working solution) in TBS buffer with 0.2% BSA, shake at room temperature for 30 minutes and read using a TRF-capable plate reader at 665 and 615 nm (Victor 5, Perkin ElmerWallac). If not specified, the reagents were purchased from Sigma Chemical Co.

Chain of recombinant GST-tagged MDM2 / p53-peptide interaction (Q00987 whole entry): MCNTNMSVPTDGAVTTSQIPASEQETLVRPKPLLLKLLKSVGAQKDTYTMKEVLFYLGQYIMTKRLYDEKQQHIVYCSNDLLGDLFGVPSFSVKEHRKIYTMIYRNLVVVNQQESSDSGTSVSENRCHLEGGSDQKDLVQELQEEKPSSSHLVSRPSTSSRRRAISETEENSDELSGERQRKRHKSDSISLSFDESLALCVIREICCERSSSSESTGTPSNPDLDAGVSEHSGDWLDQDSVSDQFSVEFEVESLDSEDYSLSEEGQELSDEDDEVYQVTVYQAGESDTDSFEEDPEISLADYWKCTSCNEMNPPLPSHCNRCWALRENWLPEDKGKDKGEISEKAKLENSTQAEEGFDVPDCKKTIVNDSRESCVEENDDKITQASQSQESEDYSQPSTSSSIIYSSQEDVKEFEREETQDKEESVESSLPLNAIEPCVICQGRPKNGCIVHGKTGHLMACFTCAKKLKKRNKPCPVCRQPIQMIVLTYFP

Structure (SMILES) | IC50
Cc1ccc(F)cc1[C@@H]1NC(=O)C[C@H](c2cc(Cl)ccc2OC(C)(C)C(=O)NC2CCN(C)CC2)[C@@]12C(=O)Nc1cc(Cl)ccc12 (racemic) [Example 1g, Racemic (2′S,3S,4′R)-6-chloro-4′-{5-chloro-2-[1-methyl-1-(1-methyl-piperidin-4-ylcarbamoyl)-ethoxy]-phenyl}-2′-(5-fluoro-2-methyl-phenyl)spiro[3H-indole-3,3′-piperidine]-2,6′(1H)-dione] | 0.278 µM
Cc1ccc(F)cc1[C@@H]1NC(=O)C[C@H](c2cc(Cl)ccc2OC(C)(C)C(=O)NCCN2CCCCC2)[C@@]12C(=O)Nc1cc(Cl)ccc12 (racemic) [Example 8, Racemic (2′S,3S,4′R)-6-chloro-4′-{5-chloro-2-[1-methyl-1-(2-piperidin-1-yl-ethylcarbamoyl)-ethoxy]-phenyl}-2′-(5-fluoro-2-methyl-phenyl)-spiro[3H-indole-3,3′-piperidine]-2,6′(1H)-dione] | 0.327 µM
Cc1ccc(F)cc1[C@@H]1NC(=O)C[C@H](c2cc(Cl)ccc2OC2(C(=O)NS(=O)(=O)c3ccc(F)cc3)CCC2)[C@@]12C(=O)Nc1cc(Cl)ccc12 (racemic) [Example 11, Racemic (2′S,3S,4′R)-6-chloro-4′-{5-chloro-2-[1-(4-fluoro-benzenesulfonylaminocarbonyl)-cyclobutoxy]-phenyl}-2′-(5-fluoro-2-methyl-phenyl)-spiro[3H-indole-3,3′-piperidine]-2,6′(1H)-dione] | 0.065 µM

Next, values leading:

IC50 | Structure (SMILES)
0.155 µM | CN(C)C(=O)C(C)(C)Oc1ccc(Cl)cc1[C@H]1CC(=O)N[C@@H](c2cc(Cl)ccc2F)[C@]12C(=O)Nc1cc(Cl)ccc12 (racemic) [Example 34d, (2′R,3S,4′R)-6-chloro-4′-[5-chloro-2-(1-dimethylcarbamoyl-1-methyl-ethoxy)-phenyl]-2′-(2-fluoro-5chloro-phenyl)spiro[3H-indole-3,3′-piperidine]-2,6′(1H)-dione]
0.054 µM | Cc1ccc(F)cc1[C@@H]1NC(=O)C[C@H](c2cc(Cl)ccc2OC(C)(C)C(=O)N2CCC(F)(F)CC2)[C@@]12C(=O)Nc1cc(Cl)ccc12 [Example 29b, (2′S,3S,4′R)-6-chloro-4′-{5-chloro-2-[2-(4,4-difluoro-piperidin-1-yl)-1,1-dimethyl-2-oxo-ethoxy]-phenyl}-2′-(5-fluoro-2-methyl-phenyl)spiro[3H-indole-3,3′-piperidine]-2,6′(1H)-dione]
